Test results as given in PubChem BioAssay AID1259411 (Chemical Carcinogenesis Research Information System (CCRIS), 2018).
Calls of active or inactive are those of the source. How the calls were made is not given here.

Test system: rodent carcinogenicity bioassays, tumor incidence
Assay: CCRIS carcinogenicity studies
Summary of the method: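 Archive of carcinogenicity, mutagenicity, tumor promotion and tumor inhibition results drawn from journals, NCI reports and other sources, expert-reviewed; covers 1985-2011 and is no longer updated.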

For `NCCCCCCCCCCC(=O)O`, which carcinogen call (Species: MOUSE, Strain/Sex: B6C3F1/FEMALE, Route: ORAL, Dose: 0, 7500, 15000 PPM IN DIET FOR 103 WK (STUDY DURATION: 103 WK), Dose: 0, 7500, 15000 PPM IN DIET FOR 103 WK (STUDY DURATION: 103 WK)) is on record?
The carcinogen call was “inactive; negative”.

And the carcinogen call (Species: MOUSE, Strain/Sex: B6C3F1/MALE, Route: ORAL, Dose: 0, 7500, 15000 PPM IN DIET FOR 103 WK (STUDY DURATION: 103 WK), Dose: 0, 7500, 15000 PPM IN DIET FOR 103 WK (STUDY DURATION: 103 WK), Tumor Site: Type of Lesion: HEMATOPOIETIC SYSTEM: MALIGNANT LYMPHOMA)?
The carcinogen call was “equivocal”.

And the carcinogen call (Species: RAT, Strain/Sex: F344/FEMALE, Route: ORAL, Dose: 0, 7500, 15000 PPM IN DIET FOR 104 WK (STUDY DURATION: 104 WK), Dose: 0, 7500, 15000 PPM IN DIET FOR 104 WK (STUDY DURATION: 104 WK))?
Its carcinogen call is “inactive; negative”.

And the carcinogen call (Species: RAT, Strain/Sex: F344/MALE, Route: ORAL, Dose: 0, 7500, 15000 PPM IN DIET FOR 104 WK (STUDY DURATION: 104 WK), Dose: 0, 7500, 15000 PPM IN DIET FOR 104 WK (STUDY DURATION: 104 WK), Tumor Site: Type of Lesion: LIVER: NEOPLASTIC NODULE, URINARY BLADDER: TRANSITIONAL CELL CARCINOMA)?
The carcinogen call was “active; positive”.

With `CCN(CC(F)(F)F)N=O` as the compound, how does the carcinogen call (Species: RAT, Strain/Sex: SPRAGUE-DAWLEY/MALE, Route: GAVAGE, Dose: 7.5, 15, 30, 60 MG/KG IN VEGETABLE OIL 2/WK, Dose: 7.5, 15, 30, 60 MG/KG IN VEGETABLE OIL 2/WK, Tumor Site: Type of Lesion: ESOPHAGUS: CARCINOMA, NASAL CAVITY: SQUAMOUS CELL CARCINOMA) read?
The carcinogen call was “active; positive”.

`COP(=O)(NC(C)=O)SC` (centres undefined) was tested. Which carcinogen call (Species: Mouse, Strain/Sex: CD-1/Female, Route: Oral, Dose: 0, 50, 250, 1000 ppm (0; 8; 42; 167 mg/kg/d) in feed for 104 wk, Dose: 0, 50, 250, 1000 ppm (0; 8; 42; 167 mg/kg/d) in feed for 104 wk, Tumor Site: Type of Lesion: Liver: Hepatocellular carcinoma and adenoma (highest dose only)) did it give?
Its carcinogen call is “inactive; negative; purity = 92.7, 92.1%”.

What about the carcinogen call (Species: Mouse, Strain/Sex: CD-1/Male, Route: Oral, Dose: 0, 50, 250, 1000 ppm (0; 7; 36; 146 mg/kg/d) in feed for 104 wk, Dose: 0, 50, 250, 1000 ppm (0; 7; 36; 146 mg/kg/d) in feed for 104 wk) of the same compound?
The carcinogen call was “inactive; negative; purity = 92.7, 92.1%”.

With `Clc1cc2c(c(Cl)c1Cl)Oc1c(Cl)c(Cl)c(Cl)c(Cl)c1O2` as the compound, how does the carcinogen call (Species: RAT, Strain/Sex: SPRAGUE-DAWLEY/FEMALE (30), Route: ORAL, GAVAGE IN CORN OIL, Dose: 2.5 MG/KG BW PLUS 0.63 MG/KG 0N D 150, TOTAL DOSE 3.1 MG/KG (STUDY DURATION: LIFESPAN), Tumor Site: Type of Lesion: LIVER: CARCINOMA) read?
Its carcinogen call is “active; positive”.

What about the carcinogen call (Species: RAT, Strain/Sex: SPRAGUE-DAWLEY/FEMALE (30), Route: ORAL, GAVAGE IN CORN OIL, Dose: 2.5 MG/KG BW PLUS 0.63 MG/KG ON D 150, TOTAL DOSE 3.1 MG/KG (STUDY DURATION: LIFESPAN), Tumor Site: Type of Lesion: LUNG: CARCINOMA) of the same compound?
The carcinogen call was “active; positive”.

And the carcinogen call (Species: RAT, Strain/Sex: SPRAGUE-DAWLEY/FEMALE (30), Route: ORAL, GAVAGE IN CORN OIL, Dose: 2.8 MG/KG BW PLUS 0.086 MG/KG EVERY OTHER WK FOR LIFESPAN, TOTAL DOSE 4.6 MG/KG (STUDY DURATION: LIFESPAN), Tumor Site: Type of Lesion: LUNG: CARCINOMA)?
Its carcinogen call is “active; positive”.

What about the carcinogen call (Species: RAT, Strain/Sex: SPRAGUE-DAWLEY/FEMALE, Route: ORAL, GAVAGE IN CORN OIL, Dose: 0, 1.0, 2.8, 3.1, 3.4, 3.8, 4.1 MG/KG BW ONCE (STUDY DURATION: LIFESPAN), Dose: 0, 1.0, 2.8, 3.1, 3.4, 3.8, 4.1 MG/KG BW ONCE (STUDY DURATION: LIFESPAN), Tumor Site: Type of Lesion: LIVER: CARCINOMA) of the same compound?
Its carcinogen call is “active; positive at higher doses”.

What about the carcinogen call (Species: RAT, Strain/Sex: SPRAGUE-DAWLEY/FEMALE, Route: ORAL, GAVAGE IN CORN OIL, Dose: 0, 1.0, 2.8, 3.1, 3.4, 3.8, 4.1 MG/KG BW ONCE (STUDY DURATION: LIFESPAN), Dose: 0, 1.0, 2.8, 3.1, 3.4, 3.8, 4.1 MG/KG BW ONCE (STUDY DURATION: LIFESPAN), Tumor Site: Type of Lesion: LUNG: CARCINOMA) of the same compound?
Its carcinogen call is “active; positive”.

For `CCCCN(N=O)C1CCC(=O)O1` (centres undefined), which carcinogen call (Species: RAT, Strain/Sex: F344/MALE, Route: SUBCUTANEOUS, Dose: 38 UMOL/KG IN OLIVE OIL 1/WK FOR 10 WK, Tumor Site: Type of Lesion: INJECTION SITE: MALIGNANT FIBROUS HISTIOCYTOMA, LUNG: ADENOMA) is on record?
The carcinogen call was “active; positive”.

For `CCCCCCCCCCCC(=O)N(CCO)CCO`, which carcinogen call (Species: MOUSE, Strain/Sex: B6C3F1/FEMALE, Route: DERMAL, Dose: 0, 100, 200 MG/KG BW IN ETHANOL FOR 105 WK (STUDY DURATION: 105 WK), Dose: 0, 100, 200 MG/KG BW IN ETHANOL FOR 105 WK (STUDY DURATION: 105 WK), Tumor Site: Type of Lesion: LIVER: HEPATOCELLULAR ADENOMA, HEPATOCELLULAR ADENOMA OR CARCINOMA, HEPATOCELLULAR CARCINOMA OR HEPATOBLASTOMA, HEPATOCE) is on record?
Its carcinogen call is “equivocal”.

What about the carcinogen call (Species: MOUSE, Strain/Sex: B6C3F1/MALE, Route: DERMAL, Dose: 0, 100, 200 MG/KG BW IN ETHANOL FOR 105 WK (STUDY DURATION: 105 WK), Dose: 0, 100, 200 MG/KG BW IN ETHANOL FOR 105 WK (STUDY DURATION: 105 WK)) of the same compound?
The carcinogen call was “inactive; negative”.

And the carcinogen call (Species: RAT, Strain/Sex: F344/N/FEMALE, Route: DERMAL, Dose: 0, 50, 100 MG/KG BW IN ETHANOL FOR 105 WK (STUDY DURATION: 105 WK), Dose: 0, 50, 100 MG/KG BW IN ETHANOL FOR 105 WK (STUDY DURATION: 105 WK))?
Its carcinogen call is “inactive; negative”.

And the carcinogen call (Species: RAT, Strain/Sex: F344/N/MALE, Route: DERMAL, Dose: 0, 50, 100 MG/KG BW IN ETHANOL FOR 104 WK (STUDY DURATION: 104 WK), Dose: 0, 50, 100 MG/KG BW IN ETHANOL FOR 104 WK (STUDY DURATION: 104 WK))?
Its carcinogen call is “inactive; negative”.

What does the source list for `NC=O`?
carcinogen call (Species: Mouse, Strain/Sex: B5C3F1/Female, Route: Oral, Dose: 0, 20, 40, 80 mg/kg in deioninzed water, by gavage, 5 d/wk for 104-105 wk, Tumor Site: Type of Lesion: Liver: hepatocellular adenoma and carcinoma (combined)): active; positive, authors described results as equivocal evidence of carcinogenic activi; carcinogen call (Species: Mouse, Strain/Sex: B6C3F1/Male, Route: Oral, Dose: 0, 20, 40, 80 mg/kg in deioninzed water, by gavage, 5 d/wk for 104-105 wk, Tumor Site: Type of Lesion: Liver: hemangiosarcoma): active; positive, authors described results as clear evidence of carcinogenic activity; carcinogen call (Species: Rat, Strain/Sex: F344/N/Female, Route: Oral, Dose: 0, 20, 40, 80 mg/kg in deioninzed water, by gavage, 5 d/wk for 104-105 wk): inactive; negative; carcinogen call (Species: Rat, Strain/Sex: F344/N/Male, Route: Oral, Dose: 0, 20, 40, 80 mg/kg in deioninzed water, by gavage, 5 d/wk for 104-105 wk): inactive; negative

For `CCCN(CCC)N=O`, which carcinogen call (Species: HAMSTER, Route: SUBCUTANEOUS, Tumor Site: Type of Lesion: RESPIRATORY TRACT, LUNG) is on record?
Its carcinogen call is “active; positive”.

And the carcinogen call (Species: RAT, Route: ORAL, Tumor Site: Type of Lesion: LIVER)?
The carcinogen call was “active; positive”.

What about the carcinogen call (Species: RAT, Route: SUBCUTANEOUS, Tumor Site: Type of Lesion: NASAL CAVITY, LIVER) of the same compound?
Its carcinogen call is “active; positive”.

Which carcinogen call (Species: MOUSE, Strain/Sex: ICR/FEMALE, Route: INTRAPERITONEAL, Dose: 8 NMOL/5 µL DMSO ON DAY 1, 16 NMOL/10 µL ON DAY 8, AND 32 NMOL/20 µL ON DAY 15 OF AGE (STUDY DURATION: 35 WK), Tumor Site: Type of Lesion: LUNG: TUMORS) does the source give for `Cc1cc2ccccc2c2ccc3c(c12)[C@H]1O[C@H]1[C@@H](O)[C@H]3O` here?
Its carcinogen call is “active; positive”.

What about the carcinogen call (Species: MOUSE, Strain/Sex: ICR/MALE, Route: INTRAPERITONEAL, Dose: 8 NMOL/5 µL DMSO ON DAY 1, 16 NMOL/10 µL ON DAY 8, AND 32 NMOL/20 µL ON DAY 15 OF AGE (STUDY DURATION: 35 WK), Tumor Site: Type of Lesion: LIVER: TUMORS) of the same compound?
Its carcinogen call is “active; positive”.

Which results are given for `C/C=C(/C)C(=O)O[C@H]1CCN2CC=C(COC(=O)[C@@](O)([C@H](C)OC)C(C)(C)O)[C@H]12`?
carcinogen call (Species: RAT, Route: INTRAPERITONEAL, Tumor Site: Type of Lesion: INTESTINES, LIVER, INTEGUMENTARY SYSTEM (SKIN), Tumor Site: Type of Lesion: INTESTINES, LIVER, INTEGUMENTARY SYSTEM (SKIN)): active; positive; carcinogen call (Species: RAT, Strain/Sex: F344/FEMALE, Route: ORAL, Dose: 0, 7, 15, 30 PPM IN DIET, Dose: 0, 7, 15, 30 PPM IN DIET, Tumor Site: Type of Lesion: LIVER: HEPATOCELLULAR CARCINOMA OR ADENOMA (NOS), ANGIOSARCOMA, HEMATOPOIETIC SYSTEM (LEUKEMIA), LYMPHATIC SYSTEM: LYMPH, Tumor Site: Type of Lesion: LIVER: HEPATOCELLULAR CARCINOMA OR ADENOMA (NOS), ANGIOSARCOMA, HEMATOPOIETIC SYSTEM (LEUKEMIA), LYMPHATIC SYSTEM: LYMPH): active; positive; carcinogen call (Species: RAT, Strain/Sex: F344/MALE, Route: ORAL, Dose: 0, 7, 15, 30 PPM IN DIET, Dose: 0, 7, 15, 30 PPM IN DIET, Tumor Site: Type of Lesion: LIVER: HEPATOCELLULAR CARCINOMA OR ADENOMA (NOS), ANGIOSARCOMA): active; positive
